Consider one substance from patent US6709830B2, “Methods for modulating the activation of a lymphocyte expressed G protein coupled receptor involved in cell proliferation, autoimmunity and inflammation” (The Regents of the University of California, priority 1997, dated 2004).

“Also recorded” adds a separate entry of the source.

One assay has as its system MCF 10A cells. Briefly: Calcium assay ([Ca2+]i, Fura-2) in parental or pEXV3 GFP transfected MCF 10A cells (control). The settings on record: SPC or LPC up to 10 μM, LPA 1 μM, PAF 0.1 μM, ATP 20 μM. The assay is classed as cell-based, human. As for the experimental part: MCF 10A cells were cultured in specialised glass-bottom dishes (Bioptech, Inc., Butler, Pa.) and loaded with Fura-2/AM ([…]; Molecular Probes) at 37° C. for 30 minutes in HEPES buffered saline (pH 7.4) containing 125 mM NaCl, 5 mM KCl, 1.2 mM MgSO4, 11 mM glucose, 1.8 mM CaCl2, 25 mM HEPES, 0.2% BSA. Loaded cells were washed, placed in HEPES buffeted saline without BSA, and incubated for 30 minutes at ambient temperature ensure dye hydrolysis by cytosolic esterases. Using a dual-wavelength spectrofluorometer (RFK-6002, Photon Technology Int'l, So. Brunswick, N.J.) coupled to an inverted fluorescence microscope (Olympus, IX-70, Lake Success, N.Y.), GFP-positive cells were identified using an excitation wavelength of 488 nm, a dichroic 505 nm long-pass and an emitter bandpass of 535 nm (Chroma Technology, Brattleboro, Vt.). [Ca^2+], measurements were performed on individual GFP-positive cells at excitation wavelengths of 340 nm and 380 nm, and an emission wavelength of 510 nm. Prior to data acquisition, background fluorescence (areas without cells) was measured and automatically subtracted from subsequent measurements. Agonists were diluted in HEPES buffered saline and solution changes accomplished by rapidly aspirating the buffer and replacing it with HEPES buffered saline containing the specific agonist. Fura-2 fluorescence signals (340 nm, 380 nm and the 340/380 ratio) originating from individual GFP-positive cells were continuously monitored at a sampling frequency of 25 Hz and collected using a software package from Photon Technology International (Felix™). Conversion of the 340 nm/380 nm ratio value into [Ca^2+]i was estimated by comparing the cellular fluorescence ratio with ratios acquired using Fura-2 (free acid) in buffers containing known Ca^2+ concentrations. [Ca^2+]i was then calculated as described by Grynkiewicz, et al (Grynkiewicz, G, et al, J Biol Chem, 260: pp3440-3450, 1985). All assays were performed in assay buffers containing 1 mM EGTA to exclude measurement of calcium influx.
To address whether G2A is a lysophospholipid receptor, we examined signalling events in cells ectopically expressing G2A as functional correlates of receptor activation. […] [Ca^2+]i measurements were performed in MCF 10A cells transfected with plasmids encoding green fluorescent protein (GFP) tagged G2A (pEXV3 G2A.GFP) (Kabarowski, J H S, et al, PNAS, 97: pp12109-12114, 2000) or GFP as described (Yan Xu and Derek S. Damron, Methods in Molecular Medicine, 39: Ovarian Cancer: Methods and Protocols, pp611-619, 2000). […] Similarly, dose-dependent responses of G2A.GFP transfected cells to SPC were observed, with an EC50 of approximately 0.4 μM (FIG. 4B). […] Responses to these agonists were not affected by G2A.GFP expression (FIG. 4A, middle and lower panels).

A further assay concerns the target T1, G2A (Mus musculus, UniProt Q9Z282).
T1 construct: expressed in transfected cells; host or cells: MCF 10A (human breast epithelial cells, no endogenous G2A), plasmid pEXV3 G2A.GFP
T1 sequence (Q9Z282 1-382): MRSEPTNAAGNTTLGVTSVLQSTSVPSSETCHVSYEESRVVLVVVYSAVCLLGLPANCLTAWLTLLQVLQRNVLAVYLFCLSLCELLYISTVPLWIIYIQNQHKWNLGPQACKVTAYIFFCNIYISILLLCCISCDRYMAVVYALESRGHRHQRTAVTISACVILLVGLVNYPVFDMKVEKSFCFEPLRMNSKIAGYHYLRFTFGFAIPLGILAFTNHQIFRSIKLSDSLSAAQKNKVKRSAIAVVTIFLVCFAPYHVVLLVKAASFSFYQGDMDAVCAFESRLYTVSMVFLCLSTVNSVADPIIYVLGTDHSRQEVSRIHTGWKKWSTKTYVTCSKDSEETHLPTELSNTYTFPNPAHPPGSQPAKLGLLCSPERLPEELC
Briefly: ERK MAP kinase assay (phospho-ERK Western blot) in CHO G2A.GFP cells. The note with it: serum starved CHO G2A.GFP cells, LPC 0.01 μM to 10 μM, 10 minutes. The assay is classed as cell-based. On the procedure: (§1) Further exploration of the cellular response to LPC was undertaken in Chinese hamster ovary (CHO) cells. Stable lines of G2A expressing CHO cells were derived by infection with retroviruses encoding G2A.GFP (MSCV G2A.GFP). We examined ERK MAP kinase activity in control CHO GFP and CHO G2A.GFP cells in response to varying doses of LPC (0.01 μM to 10 μM).
(§2) CHO GFP or CHO G2A.GFP cells were serum starved for 18 hours prior to treatment with LPC for 10 minutes at 37° C. Western blotting was performed to detect activated p44/42 ERK MAP kinase using a specific phospho-ERK antibody (Santa Cruz Biotechnology,).
For orientation: Immunoblotting shows a protein as a band on a membrane.

The target of the next assay is T2, G2A.GFP fusion receptor (Mus musculus, UniProt Q9Z282).
T2 construct: expressed in transfected cells; host or cells: HEK 293 cells infected with amphotropic MSCV G2A.GFP retrovirus
T2 sequence (Q9Z282 1-382): T1 sequence (Q9Z282 1-382)
Briefly: Internalisation of G2A.GFP in HEK 293 G2A.GFP cells (confocal microscopy). The assay is classed as cell-based. The note with it: 2 hours, serum starved HEK 293 G2A.GFP cells. As for the experimental part: Agonist dependent receptor internalisation is a feature of GPCRs. G2A.GFP expressing HEK 293 cells (HEK 293 G2A.GFP) were generated by infection with amphotropic MSCV G2A.GFP retroviruses. In serum starved HEK 293 G2A.GFP cells, G2A.GFP is expressed predominantly on the plasma membrane. LPC (0.1 μM), as well as SPC (1 μM), induced internalisation of G2A.GFP in over 90% of cells (FIG. 6). Neither LPA, S-1-P or PAF induced G2A internalisation, which is consistent with LPC acting as a specific ligand for G2A. Treatment of HEK 293 G2A.GFP cells with SPC at low concentrations (0.1 μM) induced receptor internalisation in fewer cells (<50%).
HEK 293 G2A.GFP cells were seeded onto glass coverslips and subsequently serum starved for 16-24 hours prior to treatment with lipids. Two hours following lipid treatment, coverslips were washed with cold PBS and fixed with PBS/4% paraformaldehyde. Subcellular localisation of G2A.GFP was visualised under a confocal fluorescence microscope with a 60× oil immersion lens.

In the next assay the test system is CHO GFP cells. In words: ERK MAP kinase assay in control CHO GFP cells. The assay is classed as cell-based, Chinese hamster. The note with it: serum starved CHO GFP cells, LPC 0.01 μM to 10 μM, 10 minutes. On the procedure:
as §1, §2

As for lysophosphatidylcholine [LPC], the “[Ca2+]i response in control cells” value in the assay with MCF 10A cells was “Neither parental or pEXV3 GFP transfected cells responded”. Further, on G2A, the “ERK MAP kinase activity” value is given as “dose-dependent increases; also recorded: activates ERK MAP kinase”. The “induction of G2A internalisation” value on G2A.GFP fusion receptor is “internalisation of G2A.GFP induced by LPC”. Also, the “ERK MAP kinase activity in control cells” value in the assay with CHO GFP cells is “did not respond”.
